In patent US20180072997A1, “INHIBITORS OF HUMAN IMMUNODEFICIENCY VIRUS REPLICATION” (ViiV HEATHCARE UK (NO.5) LIMITED, priority 2015, published 2018):

What was measured:
[1] = system: recombinant NL4-3 virus (Renilla luciferase in nef) in MT-2 cells; test: whole plant or invertebrate; format: cell-based, HIV; settings: Renilla, NL43, MT-2 cells infected for 4-5 days with recombinant NL4-3 Renilla luciferase virus; luciferase activity
Procedure, shortened: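 MT-2 cells infected for 4-5 days with NL4-3 reporter virus (Renilla luciferase replacing part of nef, produced by transfection of 293T cells) in the presence of serial compound dilutions. Antiviral activity quantified by luciferase activity read with a live-cell substrate.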

[2] = Compound cytotoxicity, XTT-based colorimetric assay; format: cell-based; settings: human, uninfected MT2 cells, day 4, XTT
Procedure, shortened: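 Run under the antiviral-assay protocol but without virus. Viability was read on day 4 and CC50 values were derived from the readout.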

| Structure (SMILES) | EC50 [1] [µM] | CC50 at 4 days [2] [µM] |
| --- | --- | --- |
| CCN(C(=O)[C@H](Cc1cc(F)cc(F)c1)NC(=O)CN1c2ccccc2N(CC(=O)N[C@@H](Cc2cc(F)cc(F)c2)C(=O)N(CC)c2ccc(OC(F)F)cc2)S1(=O)=O)c1ccc(OC(F)F)cc1 [Example 147] | 0.09 | ≥ 100 |
| CCN(C(=O)[C@H](Cc1cc(F)cc(F)c1)NC(=O)CN1c2ccccc2N(CC(=O)N[C@@H](Cc2cc(F)cc(F)c2)C(=O)N(CC)c2ccc(NC(=O)OC)cc2)S1(=O)=O)c1ccc(NC(=O)OC)cc1 [Example 148] | 0.72 | ≥ 100 |
| CCN(C(=O)[C@H](Cc1cc(F)cc(F)c1)NC(=O)NS(=O)(=O)N[C@@H](Cc1cc(F)cc(F)c1)C(=O)N(CC)c1ccc(NC(=O)OC)cc1)c1ccc(NC(=O)OC)cc1 [Example 149] | 1.64 | 79.5 |
| CCN(C(=O)[C@H](Cc1cc(F)cc(F)c1)NC(=O)NS(=O)(=O)N[C@@H](Cc1cc(F)cc(F)c1)C(=O)N(CC)c1ccc(OC(F)F)cc1)c1ccc(OC(F)F)cc1 [Example 150] | 0.01 | 24.6 |
| Cc1nc2cc(N(C)C(=O)[C@H](Cc3cc(F)cc(F)c3)NC(=O)NS(=O)(=O)N[C@@H](Cc3cc(F)cc(F)c3)C(=O)N(C)c3ccc4sc(C)nc4c3)ccc2s1 [Example 151] | 0.19 | 33.4 |
| CCN(C(=O)[C@H](Cc1cc(F)cc(F)c1)NC(=O)NS(=O)(=O)N[C@@H](Cc1cc(F)cc(F)c1)C(=O)N(CC)c1ccc2scnc2c1)c1ccc2scnc2c1 [Example 152] | 0.06 | 99.3 |
| CCN(C(=O)[C@H](Cc1cc(F)cc(F)c1)NC(=O)CN1c2ccccc2N(CC(=O)N[C@@H](Cc2cc(F)cc(F)c2)C(=O)N(CC)c2ccc3oc(=O)n(Cc4ccccc4)c3c2)S1(=O)=O)c1ccc2oc(=O)n(Cc3ccccc3)c2c1 [Example 153] | 1.54 | 3.1 |
| CN(C(=O)[C@H](Cc1ccccc1)NC(=O)c1ccnc(N[C@@H](Cc2ccccc2)C(=O)N(C)c2ccc3scnc3c2)n1)c1ccc2scnc2c1 [Example 154] | 1.86 | ≥ 100 |
| CCN(C(=O)[C@H](Cc1cc(F)cc(F)c1)NC(=O)CN1c2ccccc2N(CC(=O)N[C@@H](Cc2cc(F)cc(F)c2)C(=O)N(CC)c2ccc3oc(=O)n(CC)c3c2)S1(=O)=O)c1ccc2oc(=O)n(CC)c2c1 [Example 155] | 2.13 | ≥ 33.3 |
| CCN(C(=O)[C@H](Cc1cc(F)cc(F)c1)NC(=O)NS(=O)(=O)N[C@@H](Cc1cc(F)cc(F)c1)C(=O)N(CC)c1ccc2oc(=O)n(CC)c2c1)c1ccc2oc(=O)n(CC)c2c1 [Example 156] | 24.7 | ≥ 50 |
| COc1ccc(N(C)C(=O)[C@H](Cc2cc(F)cc(F)c2)Nc2ccnc(N[C@@H](Cc3cc(F)cc(F)c3)C(=O)N(C)c3ccc(OC)cc3)n2)cc1 [Example 158] | 9.53 | 12.4 |
| COc1ccc(-n2ccnc2C(Cc2ccccc2)NC(=O)NS(=O)(=O)N[C@@H](Cc2ccccc2)c2nccn2-c2ccc(OC)cc2)cc1 (stereo partly shown) [Example 159] | 3.68 | 86.4 |
| CN(C(=O)[C@H](Cc1cc(F)cc(F)c1)NC(=O)CN1c2ccccc2N(CC(=O)N[C@@H](Cc2cc(F)cc(F)c2)C(=O)N(C)c2ccc3sncc3c2)S1(=O)=O)c1ccc2sncc2c1 [Example 160] | 0.02 | ≥ 100 |
| COc1ccc(-n2ccnc2[C@H](Cc2ccccc2)NC(=O)c2cccc(C(=O)N[C@@H](Cc3ccccc3)c3nccn3-c3ccc(OC)cc3)c2)cc1 [Example 161] | 2.8 | 73.9 |
| CN(C(=O)[C@H](Cc1cc(F)cc(F)c1)NC(=O)NS(=O)(=O)N[C@@H](Cc1cc(F)cc(F)c1)C(=O)N(C)c1ccc2c(c1)OCCO2)c1ccc2c(c1)OCCO2 [Example 162] | 0.07 | 43.9 |
| C=CCN(C(=O)[C@H](Cc1cc(F)cc(F)c1)NS(=O)(=O)CS(=O)(=O)N[C@@H](Cc1cc(F)cc(F)c1)C(=O)N(CC=C)c1ccc(OC)cc1)c1ccc(OC)cc1 [Example 163] | 2.56 | ≥ 100 |
| C=CCN(C(=O)[C@H](Cc1cc(F)cc(F)c1)NS(=O)(=O)CCCS(=O)(=O)N[C@@H](Cc1cc(F)cc(F)c1)C(=O)N(CC=C)c1ccc(OC)cc1)c1ccc(OC)cc1 [Example 164] | 2.64 | ≥ 100 |
| CN(C(=O)[C@H](Cc1cc(F)cc(F)c1)NC(=O)NS(=O)(=O)N[C@@H](Cc1cc(F)cc(F)c1)C(=O)N(C)c1ccc(Cl)cc1)c1ccc(Cl)cc1 [Example 165] | 0.04 | 30.3 |
| COc1ccc(-n2ccnc2C(Cc2ccccc2)NC(=O)CN2c3ccccc3N(CC(=O)N[C@@H](Cc3ccccc3)c3nccn3-c3ccc(OC)cc3)S2(=O)=O)cc1 (stereo partly shown) [Example 166] | 6.7 | ≥ 100 |
| CN(C(=O)[C@H](Cc1ccccc1)NC(=O)NS(=O)(=O)N[C@@H](Cc1ccccc1)C(=O)N(C)c1ccc(C(C)(C)C)cc1)c1ccc(C(C)(C)C)cc1 [Example 167] | 0.27 | 26.5 |
